In the METLIN SMRT retention time set (Domingo-Almenara et al. 2019):

Assay: gradient 5% acetonitrile 3 min, to 50% in 2 min, to 85% in 15 min, held 3 min, 100 µL/min
Conditions: column: Zorbax Extend-C18 2.1 x 50 mm; eluents: water / acetonitrile, 0.1% formic acid
Procedure, shortened: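 Pure standards were analyzed in mixtures of ~100 molecules using HPLC coupled to a quadrupole time-of-flight mass spectrometer, in both positive and negative ionization mode. Separation used a Zorbax Extend-C18 column (2.1 × 50 mm, 1.8 μm) at 100 μL/min, with water and acetonitrile each containing 0.1% formic acid. Dead and dwell volumes were 40 μL and 900 μL, and data were collected over 3 months. Retention time was read from computationally picked adduct peaks, each inspected manually.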

Row | Structure (SMILES) | RP-LC retention time [s]
1 | Cc1ccc(-c2noc(-c3cccc(S(=O)(=O)Nc4ccc(C#N)cc4)c3)n2)cc1 | 1140
2 | COc1ccc(N2CCn3c2nn(CC(=O)NCc2ccco2)c(=O)c3=O)cc1 | 634
3 | CC(C)(c1ccccc1)c1cc(CN2CCOCC2)c(O)c(CN2CCOCC2)c1 | 575
4 | CC1CCN(c2nnc(-c3nc(C4CC4)no3)c3ccccc23)CC1 | 1140
5 | Cc1c(C2CCN(C(=O)c3cc4ccccc4[nH]3)CC2)noc1N | 729
6 | COc1ccccc1N1CCN(c2cc(SCC(=O)Nc3cccc(Cl)c3C)ncn2)CC1 | 1110
7 | CSc1cccc(NC(=O)C(=O)NCC(c2ccc3c(c2)CCCN3C)N2CCCC2)c1 (configuration not stated) | 640
8 | COCCOC1CCC12CCN(S(=O)(=O)c1ccccc1C)CC2 (configuration not stated) | 983
9 | CC1CN(c2ccccc2)c2nc3c(c(=O)n(CC(=O)O)c(=O)n3C)n2C1 (configuration not stated) | 709
10 | COc1ccccc1N1CCN(c2cc(SCC(=O)NCCC3=CCCCC3)ncn2)CC1 | 1080
11 | COc1ccc(-c2nocc2CCC(=O)O)cc1 | 712
12 | Cc1nn(C)c(C)c1S(=O)(=O)N1[C@H]2CC[C@@H]1c1cnc(-c3ccc(F)cc3)nc1C2 | 924
13 | O=C(COc1ccccc1F)NCC1CCN(Cc2cccs2)CC1 | 560
14 | COc1ccc(Cl)cc1NC(=O)N1CCC2(CC1)N=C(c1ccccc1)C(=O)N2 | 909
15 | Cc1ccc(NC(=O)N2CCc3c(c(-c4nc(C5CC5)no4)nn3C)C2)cc1 | 867
16 | COc1ccccc1NC(=O)Cn1nc2c(Oc3ccc(Cl)cc3)nccn2c1=O | 859
17 | O=C(CCS(=O)(=O)c1ccccc1)N1CCCc2ccccc21 | 779
18 | O=S(=O)(c1ccc(-c2nnc(C3CC3)o2)o1)N1CCN(C2CCCCC2)CC1 | 642
19 | CCOc1ccccc1NC(=O)Cn1nc2c(Oc3cccc(F)c3)nccn2c1=O | 906
20 | COc1ccc(C2C(C(=O)NCCN3CCOCC3)c3cc(OC)c(OC)cc3C(=O)N2C)cc1 (configuration not stated) | 610
21 | CC1=C(c2ccc(C)c(C)c2)S(=O)(=O)N=C1N1CCCN(C(=O)c2cccnc2)CC1 | 788
22 | CN(C)C(=O)c1csc(S(=O)(=O)N2CCC(C(=O)NCc3cccs3)CC2)c1 | 718

Row | Structure (SMILES) | RP-LC retention time [s]
23 | O=[N+]([O-])c1cccc2cn[nH]c12 | 767
24 | CC(C)N1C(=O)C(C)(C(=O)NCc2cccc(Br)c2)Oc2cccnc21 (configuration not stated) | 1030
25 | O=C(NCCn1c(=O)n(Cc2ccc(F)cc2)c2cccnc21)c1ccoc1 | 745
26 | CC(C)n1cnc2ccc(-c3noc(COc4ccc(F)cc4)n3)cc21 | 783
27 | O=C(Nc1cccc(Cl)c1)C1CCN(S(=O)(=O)c2cc(C(=O)N3CCCC3)cs2)CC1 | 884
28 | O=C(NCCC1CCN(S(=O)(=O)c2ccccc2)CC1)Nc1cc(F)ccc1F | 960
29 | CC(C)(C)c1ccc(C(=O)NC2(c3nc(-c4cccnc4)no3)CCCCC2)cc1 | 1160
30 | COCCN1C(=O)c2ccccc2C(C(=O)NCCCc2ccccc2)C12CCCC2 (configuration not stated) | 944
31 | Cc1ccc2c(=O)c(C(=O)Nc3ccc(C)c(C)c3)c[nH]c2n1 | 894
32 | Cc1ccc(N2C=C(C(=O)N3CCCC3)S(=O)(=O)c3ccc(F)cc32)cc1 | 799
33 | Cc1ccc(-n2nc(C(=O)N3CCN(c4ccccn4)CC3)c(=O)n(C)c2=O)cc1 | 625
34 | O=C(NCc1ccc2c(c1)OCO2)C1CCCN(c2nn3c(=O)c4c(nc3s2)CCCC4)C1 (configuration not stated) | 719
35 | CC(C)c1cc(C2CCCN2C(=O)NC(C)(C)C)on1 (configuration not stated) | 835
36 | CN1C(=O)c2cc(C(=O)NC3CCN(Cc4ccccc4)CC3)nn2CC1(C)C(=O)NC1CCCC1 (configuration not stated) | 610
37 | Cc1ccc(C2=NC3(CCN(C(=O)c4n[nH]c5c4CCCC5)CC3)ON2)cc1 | 736
38 | CCc1cc(-c2csc(S(=O)(=O)N3CCN(c4ccc(Cl)cc4)CC3)c2)on1 | 1200
39 | O=C(Cn1cnc(-c2noc(-c3ccc(F)cc3)n2)c1)NCc1ccc(Cl)cc1 | 917
40 | CCN(CC)C(=O)C1CCCN(C(=O)c2nn(C)c3c2CN(C(=O)c2ccco2)CC3)C1 (configuration not stated) | 658
41 | COc1cccc(C(=O)N2CCN(c3ccc(-c4ccccn4)nn3)CC2)c1OC | 586
42 | Cc1cc(C)cc(NC(=O)Cn2c(=O)c(CCC(=O)NC3CCCC3)nc3ccccc32)c1 | 916
43 | Cc1ccc(CNC(=O)C2CCN(S(=O)(=O)c3ccc4c(c3)CCCC(=O)N4)CC2)cc1 | 752
44 | CSc1ccccc1CN1CCC(CNC(=O)C2(c3ccccc3)CCOCC2)CC1 | 588

Row | Structure (SMILES) | RP-LC retention time [s]
45 | O=C(Nc1ccc(F)cc1)N1C[C@H]2C[C@H](C1)[C@H]1CCCC(=O)N1C2 | 640
46 | CSc1ccc(-c2nc3cccc(C)n3c2Nc2ccccc2C)cc1 | 808
47 | O=C(NCc1ccc(F)cc1F)C1CCc2nc(N3CCOCC3)ncc2C1 (configuration not stated) | 682
48 | Cn1cc(C2=CCN(S(=O)(=O)c3cccc(C(F)(F)F)c3)CC2)c2cccnc21 | 1050
49 | CCn1ncc(NC(=O)COc2cccc(C)c2C)c(N2CCCCC2)c1=O | 1230
50 | Cc1ccccc1Oc1nccn2c(=O)n(CC(=O)Nc3ccc(Cl)c(Cl)c3)nc12 | 996
51 | Cn1c(C(=O)N2CCCC(C(=O)NCCc3ccc(S(N)(=O)=O)cc3)C2)cc2sccc21 (configuration not stated) | 693
52 | Cc1ccsc1C(=O)Nc1ccc(-c2nc(Cn3cccn3)c(C)o2)cc1 | 884
53 | COc1ccc(-c2cc(=O)n3c4ccccc4n(CC(=O)Nc4ccc(F)cc4)c3n2)cc1 | 1010
54 | COCCn1c(C2CCN(C(=O)c3cc(Cl)ccc3OC)C2)nc2ccncc21 (configuration not stated) | 561
55 | COc1ccccc1NC(=O)N1CCC2(CC1)NC(=O)c1ccc(F)cc1N2C | 745
56 | Cc1oc(-c2[nH]ncc2C(=O)N2CCCC2)cc1S(=O)(=O)N1CCOCC1 | 619
57 | CCN(CCN(C)C)c1ccc(C(=O)O)cc1NS(=O)(=O)c1cc(F)ccc1C | 634
58 | O=C(c1ccccc1Br)N1CCCN(C(=O)C2CC2)c2ccccc21 | 746
59 | Cc1ccc(NC(=O)C2CCCN(S(=O)(=O)c3cc(-c4noc(C)n4)cs3)C2)c(Cl)c1 (configuration not stated) | 1060
60 | COC(=O)COC(=O)c1cn(-c2ccc(C)cc2)c(=O)c2ccccc12 | 986
61 | Cc1cc(C)cc(NC(=O)Cn2nc3n(c2=O)CCCCC3)c1 | 703
62 | COCCCNC(=O)C(C)n1c(=O)c(C(F)(F)F)nc2ccccc21 (configuration not stated) | 854
63 | Cc1ccc2nc(Cl)c3cc(C(=O)N4CCN(c5ccccn5)CC4)sc3c2c1 | 719
64 | Fc1ccccc1CN1CCc2nc(N3CCOCC3)ncc2C1 | 590
65 | Cc1ccc(CNC(=O)C2(c3ccc(NS(C)(=O)=O)cc3)CCCCC2)cc1 | 943
66 | CCn1c(=O)sc2cc(S(=O)(=O)N3CCC(C(=O)NC4CCCCCC4)CC3)ccc21 | 937

Row | Structure (SMILES) | RP-LC retention time [s]
67 | COc1ccc(CNC(=O)Nc2c(-c3cccc(C)c3)nc3ccccn23)cc1 | 651
68 | COc1ccc(-n2ccc(=O)c(-c3nc(-c4ccc(C)cc4)no3)n2)cc1 | 932
69 | CCCCCn1c(=O)c2ccccc2n(Cc2nc(-c3ccc(OCC)c(OC)c3)no2)c1=O | 1230
70 | Clc1cccc(-c2nnc(-c3nc(NCc4ccco4)c4ccccc4n3)o2)c1 | 1050
71 | O=C(NCc1ccc(Cl)cc1)C1=C2CCCN2c2ccc(F)cc2S1(=O)=O | 941
72 | CCN1c2ccc(F)cc2C(=O)NC12CCN(C(=O)c1ccc(OC)cc1)CC2 | 773
73 | Cc1ccc(C)n1-c1nnc(N2CCC(C(=O)N3CCN(c4ccccn4)CC3)CC2)s1 | 634
74 | CNC(=O)C1CCN(Cc2cc3ccccc3n2Cc2ccc(Cl)cc2)CC1 | 708
75 | COc1cc(NC(=O)C2CCN(C(=O)C3Sc4ccccc4NC3=O)CC2)cc(OC)c1 (configuration not stated) | 754
76 | CCCCn1c(=O)c2ccccc2n(Cc2nc(-c3ccc4c(c3)OCO4)no2)c1=O | 1130
77 | CCCn1cc(CCNS(=O)(=O)c2cccc(Cl)c2C)c2cccnc21 | 914
78 | COc1ccc(-c2ncc3c(n2)CCN(S(=O)(=O)c2ccc(C)cc2C)C3)cc1 | 1140
79 | CC(C)NC(=O)C1CCCN(c2cc(=O)n(C)c(=O)n2C)C1 (configuration not stated) | 595
80 | COc1ccc(-c2cc(N3CCN(C(=O)c4cccs4)CC3)n[nH]2)cc1 | 714
81 | O=C(Nc1ccc(Br)cc1)Nc1ccc2nc3n(c(=O)c2c1)CCCC3 | 740
82 | CCc1nn2c(CNC(=O)c3ccc(F)c(Cl)c3)c(C)nc2s1 | 710
83 | O=C(Cc1ccc(F)cc1)NC1CCN(c2nnc3ccccn23)CC1 | 629
84 | O=C(NC1CC1)c1ccc(OCC2CCN(C(=O)c3ccc(C(F)(F)F)cc3)CC2)cc1 | 899
85 | Cc1ccc(NC(=O)c2csc(-c3cn(C)c4ncccc34)n2)c(F)c1 | 1160
86 | Cn1nc(-c2nc(C3CC3)no2)c2c1CCN(C(=O)c1ccccc1F)C2 | 805
87 | O=C(Nc1nc(CC(=O)N2CCCc3ccccc32)cs1)c1ccco1 | 743
